In article doi:10.1101/2024.08.19.608619, “Discovery of potent SARS-CoV-2 nsp3 macrodomain inhibitors uncovers lack of translation to cellular antiviral response” (bioRxiv, 2024):
Converted amounts (≈) assume the structure as drawn. “And” between values parts separate entries of the source, which are not always exact repeats. Equal entries are not always repeated. Where two headings read alike, the source gives them in different places.

Tests used:
in vitro = conditions: human, hela-ace2 cells, 50.0
[1] = Hepatic microsomal stability, MLM; type: in vitro ADME
[2] = Permeability Papp (AB) MDR1/MDCKII; conditions: for papp_a_to_b_mean: A to B
[3] = Hepatic microsomal stability, HLM; type: in vitro ADME, human; conditions: In vitro human liver microsomal stability; for perc_remaining_no_cofactor: no cofactor
LogD = conditions: pH 7.4; In vitro LogD
[4] = test system: SARS-CoV-2, isolate USA-WA1/2020; experiment: microbe, parasite or virus in culture; type: cell-based; conditions: HeLa-ACE2 SARS-CoV-2 antiviral effect without P-gp inhibitor; for perc_max_measured: maximum measured response of dose series; for perc_min_measured: minimum measured response of dose series; for EC50: read-out: ec50; for EC90: read-out: ec90
HeLa-ACE2 cells = conditions: for perc_max_measured: highest measured response of the dose series; for perc_min_measured: lowest measured response of the dose series
[5] = In vitro kinetic solubility; conditions: In vitro kinetic solubility, ph 7.4
[6] = In vitro mouse liver microsomal stability
[7] = In vitro mouse liver microsomal stability, no cofactor
[8] = In vitro MDR1-MDCKII permeability, no inhibitor
[9] = In vitro MDR1-MDCKII permeability, recovery A to B, no inhibitor
[10] = protocol HeLa-ACE2 cytotoxicity
[11] = In vitro MDR1-MDCKII permeability, mean
[12] = In vitro MDR1-MDCKII permeability, recovery A to B, mean
[13] = In vitro mouse liver microsomal stability; no cofactor

With `CC(C)(C)[C@H](Nc1ncnc2[nH]c(-c3cnn(CC(N)=O)c3)cc12)c1ccc2c(c1)OCCO2` (single isomer, unassigned) [ASAP-0012330] the CC50 at 24 h (in vitro) was > 20 µM, the clint [1, 6] was 44.0 µL/min/mg and the perc_remaining [1, 6] was 48.0%. It also gave a t_half [1, 6] of 38.3 min, a perc_remaining_no_cofactor [1, 7] of 105.0% and a papp_a_to_b_mean [2, 8] of 0.364 ×10⁻⁶ cm/s. For the same compound, the perc_recovery_a_to_b_mean [2, 9] was 67.4%, the clint [3] was 153.0 µL/min/mg and the perc_remaining [3] was 9.0%. It also gave a t_half [3] of 10.9 min, a perc_remaining_no_cofactor [3] of 100.0% and a logd (LogD) of 3.0. The perc_max_measured [4] was 108.484%, the perc_min_measured [4] was 91.129% and the EC50 [4] was > 20 µM. For the same compound, the EC90 [4] was > 20 µM, the CC50 (HeLa-ACE2 cells; HeLa-ACE2 cytotoxicity) was > 20 µM and the cc10 (HeLa-ACE2 cells; HeLa-ACE2 cytotoxicity) was > 20.0 µM. For the same compound, the perc_max_measured (HeLa-ACE2 cells; HeLa-ACE2 cytotoxicity) was 98.779%, the perc_min_measured (HeLa-ACE2 cells; HeLa-ACE2 cytotoxicity) was 88.572% and the solubility_mean [5] was 89 µM (≈ 41.1 µg/mL).
With `CNC(=O)c1cccc(-c2cc3c(N[C@H](c4ccc5c(c4)S(=O)(=O)CCC5)C(C)C)ncnc3[nH]2)c1` (single isomer, unassigned) [ASAP-0012338] the CC50 at 24 h (in vitro) was > 20 µM, the clint [1, 6] was 197.0 µL/min/mg and the perc_remaining [1, 6] was 4.0%. It also gave a t_half [1, 6] of 8.5 min, a perc_remaining_no_cofactor [1, 7] of 106.0% and a papp_a_to_b_mean [2, 8] of 0.502 ×10⁻⁶ cm/s. For the same compound, the perc_recovery_a_to_b_mean [2, 9] was 61.5%, the clint [3] was 746.0 µL/min/mg and the perc_remaining [3] was 0.0%. For the same compound, the t_half [3] was 2.2 min, the perc_remaining_no_cofactor [3] was 99.0% and the logd (LogD) was 3.8. The perc_max_measured [4] was 112.086%, the perc_min_measured [4] was 84.591% and the EC50 [4] was > 20 µM. The EC90 [4] was > 20 µM, the CC50 (HeLa-ACE2 cells; [10]) was > 20 µM and the cc10 (HeLa-ACE2 cells; [10]) was > 20.0 µM. For the same compound, the perc_max_measured (HeLa-ACE2 cells; [10]) was 103.266%, the perc_min_measured (HeLa-ACE2 cells; [10]) was 80.243% and the solubility_mean [5] was 13 µM (≈ 6.55 µg/mL).
In the case of `CNC(=O)c1cc2c(N[C@@H](c3ccc4c(c3)S(=O)(=O)CCC4)C(C)C)ncnc2[nH]1` (single isomer, unassigned) [ASAP-0012346], the CC50 at 24 h (in vitro) is reported as > 20 µM, the clint [1, 6] is reported as 23.0 µL/min/mg and the perc_remaining [1, 6] is reported as 69.0%. For the same compound, the t_half [1, 6] was 71.6 min, the perc_remaining_no_cofactor [1, 7] was 97.0% and the papp_b_to_a_mean ([2]; In vitro MDR1-MDCKII permeability, B to A, no inhibitor) was 0.72 ×10⁻⁶ cm/s. For the same compound, the efflux_ratio [2, 8] was 21.1, the perc_recovery_a_to_b_mean [2, 9] was 74.6% and 66.3% and the perc_recovery_b_to_a_mean ([2]; In vitro MDR1-MDCKII permeability, recovery B to A, no inhibitor) was 68.8%. The perc_recovery_a_to_b_inhibitor_mean ([2]; MDR1-MDCKII, recovery A to B, with inhibitor Verapamil) was 98.1%, the perc_recovery_b_to_a_inhibitor_mean ([2]; MDR1-MDCKII, recovery B to A, with inhibitor Verapamil) was 86.6% and the clint [3] was 682.0 µL/min/mg. It also gave a perc_remaining [3] of 0.0%, a t_half [3] of 2.4 min and a perc_remaining_no_cofactor [3] of 94.0%. It also gave a logd (LogD) of 2.4, a perc_max_measured [4] of 104.869% and a perc_min_measured [4] of 90.681%. For the same compound, the EC50 [4] was > 20 µM, the EC90 [4] was > 20 µM and the CC50 (HeLa-ACE2 cells; [10]) was > 20 µM. The cc10 (HeLa-ACE2 cells; [10]) was > 20.0 µM, the perc_max_measured (HeLa-ACE2 cells; [10]) was 108.34% and the perc_min_measured (HeLa-ACE2 cells; [10]) was 94.319%. It also gave a solubility_mean [5] of 397 µM (≈ 170 µg/mL).
For `CC(C)[C@H](Nc1ncnc2[nH]c(-c3cnn(C)c3C#N)cc12)c1ccc2c(c1)NC(=O)CO2` (single isomer, unassigned) [ASAP-0013255], the CC50 at 24 h (in vitro) was > 20 µM, the clint [1, 6] was 81.0 µL/min/mg and the perc_remaining [1, 6] was 27.0%. For the same compound, the t_half [1, 6] was 20.7 min, the perc_remaining_no_cofactor [1, 7] was 96.0% and the papp_a_to_b_mean [2, 11] was 1.22 ×10⁻⁶ cm/s. The perc_recovery_a_to_b_mean [2, 12] was 51.1%, the clint [3] was 115.0 µL/min/mg and the perc_remaining [3] was 16.0%. For the same compound, the t_half [3] was 14.6 min, the perc_remaining_no_cofactor [3] was 101.0% and the logd (LogD) was 4.4. It also gave a perc_max_measured [4] of 72.17%, a perc_min_measured [4] of 6.652% and an EC50 [4] of 1.33 µM. For the same compound, the EC90 [4] was > 20 µM, the CC50 (HeLa-ACE2 cells; HeLa-ACE2 cytotoxicity) was > 20 µM and the cc10 (HeLa-ACE2 cells; HeLa-ACE2 cytotoxicity) was > 20.0 µM. It also gave a perc_max_measured (HeLa-ACE2 cells; HeLa-ACE2 cytotoxicity) of 92.424%, a perc_min_measured (HeLa-ACE2 cells; HeLa-ACE2 cytotoxicity) of 38.485% and a solubility_mean [5] of 26 µM (≈ 11.5 µg/mL).
In the case of `CC(C)[C@@H](Nc1ncnc2[nH]c(-c3cnn(CCC(N)=O)c3)cc12)c1ccc2c(c1)OCCO2` [ASAP-0008482], the CC50 at 24 h (in vitro) is reported as > 20 µM, the clint [1, 6] is reported as 62.0 µL/min/mg and the perc_remaining [1, 6] is reported as 36.0%. It also gave a t_half [1, 6] of 27.1 min, a perc_remaining_no_cofactor [1, 13] of 106.0% and a papp_a_to_b_mean [2, 11] of 1.46 ×10⁻⁶ cm/s. The perc_recovery_a_to_b_mean [2, 12] was 88.9%, the clint [3] was 99.0 µL/min/mg and the perc_remaining [3] was 19.0%. The t_half [3] was 16.9 min, the perc_remaining_no_cofactor [3] was 108.0% and the logd (LogD) was 3.0. The perc_max_measured [4] was 121.913% and 112.19%, the perc_min_measured [4] was 97.771% and 96.19% and the EC50 [4] was > 20 µM. The EC90 [4] was > 20 µM, the CC50 (HeLa-ACE2 cells; [10]) was > 20 µM and the perc_max_measured (HeLa-ACE2 cells; [10]) was 111.916% and 92.58%. The perc_min_measured (HeLa-ACE2 cells; [10]) was 82.711% and 77.006% and the solubility_mean [5] was 236 µM (≈ 109 µg/mL).
In the case of `CC(C)[C@@H](Nc1ncnc2[nH]c(-c3cnn(CC(=O)N(C)C)c3)cc12)c1ccc2c(c1)OCCO2` [ASAP-0008485], the CC50 at 24 h (in vitro) is reported as > 20 µM, the clint [1, 6] is reported as 59.0 µL/min/mg and the perc_remaining [1, 6] is reported as 39.0%. The t_half [1, 6] was 28.1 min, the perc_remaining_no_cofactor [1, 13] was 98.0% and the papp_a_to_b_mean [2, 11] was 1.15 ×10⁻⁶ cm/s. It also gave a perc_recovery_a_to_b_mean [2, 12] of 80.8%, a clint [3] of 142.0 µL/min/mg and a perc_remaining [3] of 9.0%. It also gave a t_half [3] of 11.8 min, a perc_remaining_no_cofactor [3] of 110.0% and a logd (LogD) of 2.3. For the same compound, the perc_max_measured [4] was 120.313% and 102.904%, the perc_min_measured [4] was 86.961% and 72.697% and the EC50 [4] was > 20 µM. The EC90 [4] was > 20 µM, the CC50 (HeLa-ACE2 cells; [10]) was > 20 µM and the cc10 (HeLa-ACE2 cells; [10]) was > 20.0 µM. The perc_max_measured (HeLa-ACE2 cells; [10]) was 96.628% and 85.957%, the perc_min_measured (HeLa-ACE2 cells; [10]) was 73.752% and 75.897% and the solubility_mean [5] was 210 µM (≈ 99.9 µg/mL).
In the case of `CCNC(=O)c1cc2c(N[C@@H](c3ccc4c(c3)S(=O)(=O)NCC4)C(C)C)ncnc2[nH]1` [ASAP-0011076], the CC50 at 24 h (in vitro) is reported as > 20 µM, the clint [1, 6] is reported as 45.0 µL/min/mg and the perc_remaining [1, 6] is reported as 49.0%. The t_half [1, 6] was 36.8 min, the perc_remaining_no_cofactor [1, 7] was 101.0% and the papp_a_to_b_mean [2, 11] was 1.96 ×10⁻⁶ cm/s. The perc_recovery_a_to_b_mean [2, 12] was 97.7%, the clint [3] was 85.0 µL/min/mg and the perc_remaining [3] was 24.0%. The t_half [3] was 19.7 min, the perc_remaining_no_cofactor [3] was 107.0% and the logd (LogD) was 2.6. The perc_max_measured [4] was 101.15%, the perc_min_measured [4] was 78.382% and the EC50 [4] was > 20 µM. The EC90 [4] was > 20 µM, the CC50 (HeLa-ACE2 cells; HeLa-ACE2 cytotoxicity) was > 20 µM and the cc10 (HeLa-ACE2 cells; HeLa-ACE2 cytotoxicity) was > 20.0 µM. The perc_max_measured (HeLa-ACE2 cells; HeLa-ACE2 cytotoxicity) was 99.412%, the perc_min_measured (HeLa-ACE2 cells; HeLa-ACE2 cytotoxicity) was 92.285% and the solubility_mean [5] was 344 µM (≈ 152 µg/mL).
For `CC(C)[C@@H](Nc1ncnc2[nH]c(-c3cnn(C)c3)cc12)c1ccc2c(c1)S(=O)(=O)NCC2` [ASAP-0011192], the CC50 at 24 h (in vitro) was > 20 µM, the clint [1, 6] was 87.0 µL/min/mg and the perc_remaining [1, 6] was 23.0%. It also gave a t_half [1, 6] of 19.1 min, a perc_remaining_no_cofactor [1, 7] of 92.0% and a papp_a_to_b_mean [2, 11] of 1.58 ×10⁻⁶ cm/s. The perc_recovery_a_to_b_mean [2, 12] was 93.2%, the clint [3] was 120.0 µL/min/mg and the perc_remaining [3] was 13.0%. For the same compound, the t_half [3] was 13.9 min, the perc_remaining_no_cofactor [3] was 98.0% and the logd (LogD) was 3.2. The perc_max_measured [4] was 105.419%, the perc_min_measured [4] was 69.993% and the EC50 [4] was > 20 µM. The EC90 [4] was > 20 µM, the CC50 (HeLa-ACE2 cells; HeLa-ACE2 cytotoxicity) was > 20 µM and the cc10 (HeLa-ACE2 cells; HeLa-ACE2 cytotoxicity) was > 20.0 µM. For the same compound, the perc_max_measured (HeLa-ACE2 cells; HeLa-ACE2 cytotoxicity) was 100.208%, the perc_min_measured (HeLa-ACE2 cells; HeLa-ACE2 cytotoxicity) was 90.498% and the solubility_mean [5] was 105 µM (≈ 47.4 µg/mL).
